Assay [1] deals with T1, BcX E78Q (Niallia circulans, UniProt P09850, E106Q).
T1 construct: made in house
Put plainly: NMR titration (1H-15N HSQC) of 15N-labeled BcX E78Q with ligand. The class given is binding, Bacillus circulans. The procedure: (§1) Solutions of ^15N-labeled BcX E78Q and BcX E78Q-Y69A (100 µM) were titrated with Dia-X3 and Para-X3. Concentrations of up to 50 mM for Dia-X3 and 8 mM for Para-X3 were used. Samples were prepared separately, and each contained 25 mM sodium acetate buffer (pH 5.8) and 10% D2O for lock. ^1H − ^15N HSQC spectra were obtained on a Bruker HD Avance 850 MHz spectrometer with a cryoprobe, at 20 °C, using 3 mm tubes. In one experiment Para-X3 was reduced in the NMR tube with ascorbic acid to study the effect of reduction in a single sample. The assignment, processing, and analysis of the HSQC spectra were conducted as detailed before (Saberi et al. [2024]).
(§2) Spectra were processed with Topspin (Bruker) and analyzed using CCPN Analysis v.2.4.2 (Vranken et al. [2005]). The weighted average chemical shift perturbations (CSP) for backbone amides (Δδavg) was calculated according to Eq. 1 (modified after Williamson [2013]):1 Δδavg=δH^2+δN/25^2 where δH and δN are the CSPs for ^1H and ^15N nuclei. Titration data were fitted to a 1:1 model Eq. (2), which simplifies to (3) when the ligand concentration [Lt] is much higher than the protein concentration [Pt] (Arai et al. [2012]; Wang et al. [1996]; Williamson [2013]):2 Δδobs=ΔδmaxKD+[Pt]+[Lt]-KD+[Pt]+[Lt]^2-4[Pt][Lt]/2[Pt] 3 Δδobs=[Lt]/KD+[Lt]Δδmax where Δδobs and Δδmax are the observed and maximal change in the chemical shift and KD is the dissociation constant. The error in KD was estimated by manually adjusting KD to higher and lower values and observing the range over which the fit of the CSP data to the model remained within the peak picking error bars of the CSPs.
(§3) The fractional populations of the free and bound states were calculated using the peak height (I) as follows:4 ffree=Ifree/Ifree+Ibound,fbound=Ibound/Ifree+Ibound
(§4) Here, ffree and fbound represent the fractions of the protein in the free and bound states. The uncertainties in the peak heights represent the noise level in the spectra. The dissociation constant KD was determined using:5 KD=ffree.Lfree/fbound
(§5) In this equation, [Lfree] represents the concentration of the free ligand, which was approximated as the total ligand concentration [Ltotal] because the ligand was in large excess relative to the protein. The mean KD value was determined by averaging KD values across the used residues.

Assay [2] concerns the target T2, BcX E78Q-Y69A (Niallia circulans, UniProt P09850, E106Q/Y97A).
T2 construct: made in house
Put plainly: NMR titration (1H-15N HSQC) of 15N-labeled BcX E78Q-Y69A with ligand. The class given is binding, Bacillus circulans. The procedure: as §1, §2, §3, §4, §5

The target in assay [3] is T1, BcX E78Q. The settings on record: ref Saberi et al. [2024], cited from earlier work.
Assay [4] deals with T2, BcX E78Q-Y69A. As to conditions: ref Saberi et al. [2024], cited from earlier work.
Setting [5] is: α-helix region, Para-X3 vs Dia-X3.
[6] abbreviates: α-helix region, global fit of CSP, pH 5.8, 20 °C, read-out: Dissociation constant KD, helix.
Where [7] appears, read: secondary binding site, read-out: Dissociation constant KD, SBS.

Read-outs that look alike come from different tables or passages of the source.

Consider `CC1(C)CC(O[C@@H]2OC[C@@H](O[C@@H]3OC[C@@H](O[C@@H]4OC[C@@H](O)[C@H](O)[C@H]4O)[C@H](O)[C@H]3O)[C@H](O)[C@H]2O)CC(C)(C)N1[O]` [Para-X3, β-D-xylopyranosyl-(1 → 4)-β-D-xylopyranosyl-(1 → 4)-1-TEMPOL-β-D-xylopyranoside], for which the Kd is above 8 mM on BcX E78Q [1] (active site, CSP of amides, up to 8 mM ligand, NB = no binding, read-out: Dissociation constant KD, active site); 1.6 mM on BcX E78Q [1] (setting [6]); above 8 mM on BcX E78Q-Y69A [2] (active site, fit of CSP curves (fast exchange), NB = no binding, read-out: Dissociation constant KD, active site); 2.4 mM at BcX E78Q-Y69A [2] (setting [6]). The “Binding in the active site cavity (CSP or intensity loss of amide resonances)” value on BcX E78Q [1] (inside active site cleft, up to 8 mM ligand) is “absent or very weak”. Also, the “Affinity for helix region, fold higher than for the diamagnetic equivalent (Dia-X3)” value at BcX E78Q [1] (setting [5]) amounted to 2.7 fold; on BcX E78Q-Y69A [2] (setting [5]), 1.4 fold. Besides, at BcX E78Q-Y69A [2] (8 mM ligand), the “CSPs or PRE for amides in the inner palm region (active site)” value is given as “No significant CSPs or PRE”.
As for `OC1OC[C@@H](O[C@@H]2OC[C@@H](O[C@@H]3OC[C@@H](O[C@@H]4OC[C@@H](O)[C@H](O)[C@H]4O)[C@H](O)[C@H]3O)[C@H](O)[C@H]2O)[C@H](O)[C@H]1O` (some centres unmarked) [X4], the Kd at BcX E78Q [3] (setting [7]) is 2.3 mM.
As to `OC1OC[C@@H](O[C@@H]2OC[C@@H](O[C@@H]3OC[C@@H](O)[C@H](O)[C@H]3O)[C@H](O)[C@H]2O)[C@H](O)[C@H]1O` (some centres unmarked) [X3, xylotriose], the Kd on BcX E78Q [3] (active site, read-out: Dissociation constant KD, active site) is 5.7 mM; at BcX E78Q [3] (setting [7]) it was 23 mM; at BcX E78Q-Y69A [4] (active site, aglycon subsites, 2:1 model, read-out: Dissociation constant KD2, active site), 24 mM; at BcX E78Q-Y69A [4] (active site, glycon subsites, 2:1 model, read-out: Dissociation constant KD1, active site), 15 mM; at BcX E78Q-Y69A [4] (setting [7]) it was 22 mM.

The values are drawn from PMC12078400, “Terminal spin labeling of xylotriose strongly affects interactions in the active site of xylanase BcX” (Journal of Biomolecular Nmr, 2025).
